Assay results published in US7090995B2, “Molecules and methods using same for measuring non-transferrin bound iron” (Yissum Research Development Company of the Hebrew …, priority 2000, dated 2006).
Blank lines part the entries; values can stand above or below the compound they belong to.

How the values were obtained:
[1] = DCI in serum/plasma of Thalassemia patients undergoing oral L1-chelation therapy; format: in vivo, human; settings: Thalassemia patients (Thailand, Israel), therapeutic oral doses of L1, minutes to hours after administration; FIGS. 6A-B
Description: FIG. 5 is a schematic illustration of another embodiment of the method of the present invention directed at detecting iron mobilized from tissues into plasma by chelators such as L1 (also called deferriprone). In the example depicted, a serum sample was taken from a patient following L1 oral administration. The iron mobilized in vivo into the plasma by L1 is transferred to Fl-DFO in vitro, whereupon Fl-DFO's fluorescence is quenched commensurately with the amount of iron transferred. The basic assay is as depicted in FIG. 2. FIGS. 6A–B are graphs depicting the DCI levels in plasma of thalassemic patients (3 from Israel and 3 from Thailand, FIGS. 6B and A, respectively) treated with therapeutic doses of L1 (per os). Sampled were retrieved minutes to hours following L1 administration. […] When assessed under actual clinical conditions, with serum samples from Thalassemia patients (each patient is represented by a line in the graph) undergoing L1-chelation therapy in Thailand (FIG. 6A) and Israel (FIG. 6B), the methods of the present invention accurately reflected the L1-bound iron in the patient's plasma. DCI was detected in the samples assayed as described hereinabove (Example 2), and DCI values determined from the standard calibration curve (FIG. 4). […]

[2] = Iron binding (quenching of fluorescence) by fluorescein-transferrin preparations with and without oxalate and gallium; settings: 0.6 μM indicator, 10 mM oxalate and gallium, FIGS. 8A-B
Experimental: FIGS. 8A–B graphically depict the ability of two particular preparations of iron-free-transferrin, essentially Fl-TF (FIG. 8A) and Fl-aTF (FIG. 8B), to detect free iron in the presence and absence of oxalate and Gallium [Ga(III)]. 0.6 μM of each of the indicator molecules were tested under three experimental conditions: with no addition (squares), with 10 mM Na-oxalate (circles) and with 10 mM Na-oxalate and 0.1 mM GaCl3 (triangles), Quenching of fluorescence as a function of iron concentration was measured and presented as % Original Fluorescence.
Preparation of fluorescein-conjugated apo-Transferrin (Fl-aTF) and iron depleted Transferrin (FL-TF)—100 μM 5-(4,6-dichlorotriazinyl) aminofluorescein (DCTAF, Molecular Probes, Eugene, Oreg.) from a freshly prepared 10 mM solution in dimethylsulfoxide was added to a solution containing 8 mg/ml apo-Transferrin (Kamada, Kibbutz Kama, Israel) (100 μM, based on a, MW of 80 kD) in 100 mM NaHCO3, pH 8.4. Following a 30 minute incubation at 37° C. in the dark, 5 mM L-lysine was added from a solution containing 0.5 M L-lysine, pH 8, in order to terminate the coupling reaction. The product Fl-aTF was extensively dialyzed against HBS, divided into aliquots and stored frozen at −20° C. The final preparation yielded a single fluorescent band of approximately 80 kD in polyacrylamide electrophoresis determinations. The fluoroscein concentration in Fl-aTF was determined to be 84 μM by measuring absorbance at 496 nm, using DCTAF as standard solution, giving a ratio of aTf: fluoroscein of 1:0.84.
FL-TF was prepared in an identical manner as FL-aTF, with the difference that iron-saturated human transferrin (from Kamada, Kibbutz Kama, Israel) was used instead of iron-free transferrin for reaction with DCTAF. The FL-TF was rendered iron-free by exhaustive dialysis against 37.5 mM Na-Citrate, pH 5.0, and then the citrate was removed from the preparation by exhaustive dialysis against HBS. […]

Compound: Cc1c(O)c(=O)ccn1C [L1]
DCI in patient plasma after L1 administration [1]: increases in DCI

Compound: Fl-TF: fluorescein attached to iron-saturated human transferrin, then rendered iron-free; similar to conventional fluoresceinated Transferrin
quenching of fluorescence by iron in the presence of gallium [2]: inhibition of Fl-TF fluorescence quenching by gallium was clearly observed

quenching of fluorescence by iron in the presence of gallium ([2]; listed as Fl-aTf): not affected by Gallium
Compound: 5-4,6-dichlorotriazinyl aminofluorescein (DCTF)-apo-transferrin [Fl-aTF]
quenching of fluorescence by iron in the presence of gallium ([2]; listed as FL-aTF): strongly quenched by low concentrations of iron in the presence of gallium
